Laboratory results published in publication PMC5104425, “A Novel Selective Inhibitor of Delta-5 Desaturase Lowers Insulin Resistance and Reduces Body Weight in Diet-Induced Obese C57BL/6J Mice” (PLoS ONE, 2016).

What was measured:
human D9D = target: T1, human D9D (Homo sapiens, UniProt O00767); experiment: In vitro cell-based assay for desaturase activity (HepG2), D9D
T1 construct: endogenous in cells; host or cells: HepG2
T1 sequence (O00767 1-359): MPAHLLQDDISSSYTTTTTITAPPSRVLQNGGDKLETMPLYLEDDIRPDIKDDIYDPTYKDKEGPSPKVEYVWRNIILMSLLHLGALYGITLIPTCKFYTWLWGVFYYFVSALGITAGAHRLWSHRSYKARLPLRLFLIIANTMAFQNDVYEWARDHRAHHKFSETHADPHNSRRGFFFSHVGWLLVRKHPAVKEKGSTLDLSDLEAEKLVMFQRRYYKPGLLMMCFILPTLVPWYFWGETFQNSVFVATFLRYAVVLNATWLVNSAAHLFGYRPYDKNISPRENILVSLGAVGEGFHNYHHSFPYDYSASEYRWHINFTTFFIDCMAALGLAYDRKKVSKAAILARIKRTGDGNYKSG
Description: (§1) HepG2 cells were seeded in 96-well cell culture plates at 100 000 cells/well and incubated overnight in DMEM supplemented with 10% fetal bovine serum, 100 U/mL penicillin, and 100 μg/mL streptomycin in 5% CO2 at 37°C. The cells were washed twice with 200 μL of PBS and incubated with the test compounds in DMEM with 0.1% fatty acid free BSA for 30 min. Then, 0.1 μCi/well of [^14C]-labeled DGLA, linoleic acid, and stearic acid (ARC, St. Louis, MO) were added for each desaturase assay. After incubation for 3 h at 37°C, the cells were washed 3 times with 200 μL of PBS to remove [^14C]-labeled substrates in the medium and 0.63 N of NaOH was added to saponify fatty acids. Radioactive substrates and products were extracted, separated, and analyzed using the method as described above.

human D6D = target: T2, human D6D (Homo sapiens, UniProt O95864); experiment: In vitro cell-based assay for desaturase activity (HepG2), D6D
T2 construct: endogenous in cells; host or cells: HepG2
T2 sequence (O95864 1-444): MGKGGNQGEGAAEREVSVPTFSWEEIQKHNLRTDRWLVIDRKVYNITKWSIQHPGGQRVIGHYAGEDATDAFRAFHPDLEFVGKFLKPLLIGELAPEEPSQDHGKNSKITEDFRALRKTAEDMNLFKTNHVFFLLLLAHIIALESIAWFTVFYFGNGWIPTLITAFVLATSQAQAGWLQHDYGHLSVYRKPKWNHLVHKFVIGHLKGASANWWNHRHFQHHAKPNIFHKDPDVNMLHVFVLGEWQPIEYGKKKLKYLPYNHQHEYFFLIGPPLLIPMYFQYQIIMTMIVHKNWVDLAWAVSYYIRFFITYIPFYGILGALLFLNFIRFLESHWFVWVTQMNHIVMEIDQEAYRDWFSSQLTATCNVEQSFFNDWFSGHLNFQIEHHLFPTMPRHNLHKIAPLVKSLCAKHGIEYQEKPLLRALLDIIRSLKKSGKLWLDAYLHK
Description: as §1

DIO mice [1] = experiment: Indirect calorimetry test (energy expenditure, RER) in established DIO mice; type: in vivo, C57BL/6J mice; details: 10 mg/kg
Description: To evaluate the effect on daily EE, DIO mice fed a HFD that has 41% kcal from fat and contains no AA (D12079B; Research diets, Inc., see S1 Table for fatty acids composition) for 50 weeks were used. At 55 weeks of age, DIO mice were divided into two weight-matched groups (7 animals per group) and treated with vehicle or 10 mg/kg compound-326 for 11 weeks. […] Indirect calorimetry test was performed on day1, 8, 15, 21, and 56 during the study. Daily EE was analyzed using ANCOVA with body mass as covariate. After the treatment period, mice were sacrificed and fat tissues were harvested to evaluate the weights.
Energy metabolism was evaluated using an Oxymax indirect calorimetry system (Columbus Instruments, Columbus, OH). Mice were individually housed in the chamber with a 12-h light/dark cycle. VO2 and VCO2 rates were determined with the following Oxymax system settings: air flow, 0.6 L/min; sample flow, 0.5 l/min; settling time, 10 min; and measuring time, 1 min. The system was calibrated against a standard gas mixture to measure O2 consumed (VO2, mL/kg/h) and CO2 generated (VCO2, mL/kg/h). Metabolic rate (VO2) and respiratory exchange ratio (RER; ratio of VCO2/VO2) were evaluated over a 24-h period. Energy expenditure was calculated as the product of the calorific value of oxygen (3.815+1.232×RER) and the volume of O2 consumed.

DIO mice [2] = experiment: 6-week treatment of HFD (D12079B)-fed DIO mice: BW and blood/tissue fatty acids; type: in vivo, C57BL/6J mice
Description: Fatty acids were extracted from blood and tissues by adding hexane-isopropanol-butylated hydroxytoluene (60:40:0.01, v/v/w). Samples were vortexed for 30 min. The hexane phase was removed and evaporated to dryness under nitrogen stream and vacuum. Dried samples were dissolved in methanol and analyzed by HPLC.
Mice fed a HFD that has 41% kcal from fat and contains no AA (D12079B; Research diets, Inc.) from 5 weeks of age were divided into 2 groups at the age of 8 weeks (8 animals per group), and were administered 10 mg/kg compound-326 or vehicle for 6 weeks. After the treatment period, mice were sacrificed and epididymal and subcutaneous fats were harvested for mRNA analysis. Nine animals maintained on a standard chow (CE2, CLEA Japan, Osaka) were used as control.

[3] = 10 mg/kg, after 6-week treatment

## O=C1Cc2c(nc(OCC(F)(F)C(F)(F)F)n(-c3ccc(OCC(F)(F)F)cc3)c2=O)N1 [Compound-326, 2-(2,2,3,3,3-Pentafluoropropoxy)-3-[4-(2,2,2-trifluoroethoxy)phenyl]-5,7-dihydro-3H-pyrrolo[2,3-d]pyrimidine-4,6-dione]
Human D9D
  IC50: > 10 µM
Human D6D
  inhibition of D6D activity: almost no inhibition
Human D6D; Cell-based (HepG2)
  IC50: > 10 µM
DIO mice [1]; day 15, independent of decreased BW
  daily EE relative to body mass: increased
DIO mice [1]; days 1 and 8, vs vehicle
  daily EE (kcal/day) plotted against body mass: no difference
DIO mice [1]; days 21 and 56
  difference in daily EE lines vs vehicle: became more apparent
DIO mice [1]; relative to vehicle through the study, did not reach significance
  RER: lower
DIO mice [2]; 10 mg/kg p.o., 6 weeks
  AA to DGLA ratio in epididymal fat: significantly decreased
  AA to DGLA ratio in the blood: decrease
  AA to DGLA ratio in the liver: significantly decreased
  n-3 PUFA (EPA and DHA) in blood, liver, and adipose tissue: significantly decreased
DIO mice [2]; 10 mg/kg p.o., 6 weeks, vs vehicle
  BW: significantly decreased
DIO mice [2]; [3]
  AA in the blood as well as liver: decrease
  DGLA in the blood as well as liver: increase
